Target: T1, human orexin-2 (hOX2) receptors (Homo sapiens, UniProt O43614)
T1 construct: expressed in transfected cells
T1 sequence (O43614 1-444): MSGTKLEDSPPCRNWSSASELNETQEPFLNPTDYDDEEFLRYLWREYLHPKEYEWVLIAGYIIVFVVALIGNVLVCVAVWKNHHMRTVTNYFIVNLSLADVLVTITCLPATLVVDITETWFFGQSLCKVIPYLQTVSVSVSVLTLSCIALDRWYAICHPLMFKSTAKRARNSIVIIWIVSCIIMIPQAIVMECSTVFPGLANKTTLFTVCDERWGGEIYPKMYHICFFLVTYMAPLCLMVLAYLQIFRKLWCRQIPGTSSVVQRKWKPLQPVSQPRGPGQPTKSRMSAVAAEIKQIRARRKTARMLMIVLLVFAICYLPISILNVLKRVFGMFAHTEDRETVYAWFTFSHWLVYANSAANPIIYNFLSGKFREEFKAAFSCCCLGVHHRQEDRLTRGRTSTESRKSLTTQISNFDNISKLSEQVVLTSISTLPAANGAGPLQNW
Assay: Intracellular Ca2+ mobilization assay (FLIPR), orexin-A as agonist
Format: cell-based
Settings: CHO(dHFr-) cells stably expressing hOX2; antagonist applied 25 min before EC80 of orexin-A; Kb=IC50/(1+[A]/EC50); read-out: Kb (μM) OX2R (human)
Protocol: Intracellular Ca^2+ Mobilization Assay
The Chinese Hamster Ovary (dHFr-) mutant cell line stably expressing human orexin-1 (hOX1) or human orexin-2 (hOX2) receptors were maintained in Dulbecco's Modified Eagle Medium (1X) with GlutaMax™ 1, 4500 mg/L D-Glucose and Sodium Pyruvate (Catalog No. 31966-021, Invitrogen, Carlsbad, Calif.), 5% dialyzed fetal calf serum (Catalog No. 26400-044), 100 μg/ml penicillin and 100 μg/ml streptomycin. The cells were seeded at 5×10^4 cells/well in the poly-D-lysine treated, 96-well, black/clear-bottomed plates (Catalog No. BD356640, BD Biosciences, Palo Alto, Calif.). 24 h later, the cells were loaded for 1 hr at 37° C. with 4 μM Flou-4 acetoxymethyl ester (Catalog No. F-14202, Molecular Probes, Eugene, Oreg.) in FLIPR buffer (1×HBSS, 20 mM HEPES, 2.5 mM Probenecid). Hanks' Balanced Salt Solution (HBSS) (10X) (catalog No. 14065-049) and HEPES (1M) (catalog No. 15630-056) were purchased from Invitrogen, Carlsbad, Calif. Probenecid (250 mM) (catalog No. P8761) was from Sigma, Buchs, Switzerland. The cells were washed five times with FLIPR buffer to remove excess dye and intracellular calcium mobilization, [Ca^2+] were measured using a Fluorometric Imaging Plate Reader (FLIPR-96, Molecular Devices, Menlo Park, Calif.) as described previously (Malherbe et al., Mol. Pharmacol., 64, 823-832, 2003). Orexin A (catalog No.1455, Toris Cookson Ltd, Bristol, UK) was used as agonist. Orexin A ([…] stock solution in DMSO) was diluted in FLIPR buffer +0.1% BSA. The EC50 and EC80 values of orexin-A were measured daily from standard agonist concentration-response curves in CHO(dHFr-)-OX1R and —OX2R cell lines. All compounds were dissolved in 100% DMSO. Inhibition curves were determined by addition of 11 concentrations (0.0001-10 μM) of inhibitory compounds and using EC80 value of orexin-A as agonist (a concentration which gave 80% of max agonist response, determined daily). The antagonists were applied 25 min (incubation at 37° C.) before the application of the agonist. Responses were measured as peak increase in fluorescence minus basal, normalized to the maximal stimulatory effect induced by EC80 value of orexin-A or orexin-B. Inhibition curves were fitted according to the Hill equation: y=100/(1+(x/1C50)^nH), where nH=slope factor using Excel-fit 4 software (Microsoft). Kb values were calculated according to the following equation Kb=IC50/(1+[A]/EC50) where A is the concentration of agonist added which is very close to agonist EC80 value, and IC50 and EC50 values were derived from the antagonist inhibition and orexin-A or B agonist curves, respectively.

Structure (SMILES)	Kb [µM]
COc1ccc(S(=O)(=O)N(CC(=O)N2CCCC2c2ccc(F)cc2)c2ccc(Cl)cc2)cc1 (centres unmarked) [Example 22, N-(4-Chloro-phenyl)-N-{2-[2-(4-fluoro-phenyl)-pyrrolidin-1-yl]-2-oxo-ethyl}-4-methoxy-benzenesulfonamide]	0.0017
O=C(CN(c1ccc(Cl)cc1)S(=O)(=O)c1cccc(Cl)c1)N1CCCC1c1ccc(F)cc1 (centres unmarked) [Example 18, 3-Chloro-N-(4-chloro-phenyl)-N-{2-[2-(4-fluoro-phenyl)-pyrrolidin-1-yl]-2-oxo-ethyl}-benzenesulfonamide]	0.0014
COc1ccc(N(CC(=O)N2CCCC2c2ccc(F)cc2)S(=O)(=O)c2ccc(OC)cc2)cc1 (centres unmarked) [Example 41, N-{2-[2-(4-Fluoro-phenyl)-pyrrolidin-1-yl]-2-oxo-ethyl}-4-methoxy-N-(4-methoxy-phenyl)-benzenesulfonamide]	0.0026
COc1ccc(S(=O)(=O)N(CC(=O)N2CCCC2c2ccccc2)c2ccc(Cl)cc2)cc1 (centres unmarked) [Example 6, N-(4-Chloro-phenyl)-4-methoxy-N-[2-oxo-2-(2-phenyl-pyrrolidin-1-yl)-ethyl]-benzenesulfonamide]	0.0042
COc1ccc(S(=O)(=O)N(CC(=O)N2CCCC2c2ccccc2)c2cccc(F)c2)cc1 (centres unmarked) [Example 36, N-(3-Fluoro-phenyl)-4-methoxy-N-[2-oxo-2-(2-phenyl-pyrrolidin-1-yl)-ethyl]-benzenesulfonamide]	0.0077
COc1ccc(S(=O)(=O)N(CC(=O)N2CCCC2c2ccc(F)cc2)c2ccccc2OC)cc1 (centres unmarked) [Example 26, N-{2-[2-(4-Fluoro-phenyl)-pyrrolidin-1-yl]-2-oxo-ethyl}-4-methoxy-N-(2-methoxy-phenyl)-benzenesulfonamide]	0.005
COc1ccc(S(=O)(=O)N(CC(=O)N2CCCC2c2ccc(F)cc2)c2cccc(F)c2)cc1 (centres unmarked) [Example 31, N-(3-Fluoro-phenyl)-N-{2-[2-(4-fluoro-phenyl)-pyrrolidin-1-yl]-2-oxo-ethyl}-4-methoxy-benzenesulfonamide]	0.0064
COc1cccc(S(=O)(=O)N(CC(=O)N2CCCC2c2ccccc2)c2ccc(Cl)cc2)c1 (centres unmarked) [Example 1, N-(4-Chloro-phenyl)-3-methoxy-N-[2-oxo-2-(2-phenyl-pyrrolidin-1-yl)-ethyl]-benzenesulfonamide]	0.0017
Cc1ccccc1S(=O)(=O)N(CC(=O)N1CCCC1c1ccccc1)c1ccc(Cl)cc1 (centres unmarked) [Example 3, N-(4-Chloro-phenyl)-2-methyl-N-[2-oxo-2-(2-phenyl-pyrrolidin-1-yl)-ethyl]-benzenesulfonamide]	0.0005
Cc1ccc(S(=O)(=O)N(CC(=O)N2CCCC2c2ccccc2)c2ccc(Cl)cc2)cc1 (centres unmarked) [Example 5, N-(4-Chloro-phenyl)-4-methyl-N-[2-oxo-2-(2-phenyl-pyrrolidin-1-yl)-ethyl]-benzenesulfonamide]	0.0019
COc1ccc(S(=O)(=O)N(CC(=O)N2CCCC2c2ccc(F)cc2)c2ccc(F)cc2)cc1 (centres unmarked) [Example 45, N-(4-Fluoro-phenyl)-N-{2-[2-(4-fluoro-phenyl)-pyrrolidin-1-yl]-2-oxo-ethyl}-4-methoxy-benzenesulfonamide]	0.0079
O=C(CN(c1ccc(Cl)cc1)S(=O)(=O)c1ccccc1Cl)N1CCCC1c1ccc(F)cc1 (centres unmarked) [Example 7, 2-Chloro-N-(4-chloro-phenyl)-N-{2-[2-(4-fluoro-phenyl)-pyrrolidin-1-yl]-2-oxo-ethyl}-benzenesulfonamide]	0.0007
Cc1ccccc1S(=O)(=O)N(CC(=O)N1CCCC1c1ccc(F)cc1)c1ccc(Cl)cc1 (centres unmarked) [Example 20, N-(4-Chloro-phenyl)-N-{2-[2-(4-fluoro-phenyl)-pyrrolidin-1-yl]-2-oxo-ethyl}-2-methyl-benzenesulfonamide]	0.0006
Cc1ccc(S(=O)(=O)N(CC(=O)N2CCCC2c2ccc(F)cc2)c2ccc(Cl)cc2)cc1 (centres unmarked) [Example 23, N-(4-Chloro-phenyl)-N-{2-[2-(4-fluoro-phenyl)-pyrrolidin-1-yl]-2-oxo-ethyl}-4-methyl-benzenesulfonamide]	0.0013
Cc1cccc(S(=O)(=O)N(CC(=O)N2CCCC2c2ccccc2)c2ccc(Cl)cc2)c1 (centres unmarked) [Example 11, N-(4-Chloro-phenyl)-3-methyl-N-[2-oxo-2-(2-phenyl-pyrrolidin-1-yl)-ethyl]-benzenesulfonamide]	0.0005
COc1ccc(S(=O)(=O)N(CC(=O)N2CCCC2c2ccccc2)c2ccccc2OC)cc1 (centres unmarked) [Example 43, 4-Methoxy-N-(2-methoxy-phenyl)-N-[2-oxo-2-(2-phenyl-pyrrolidin-1-yl)-ethyl]-benzenesulfonamide]	0.0032
COc1ccc(S(=O)(=O)N(CC(=O)N2CCCC2c2ccccc2)c2cccc(C(F)(F)F)c2)cc1 (centres unmarked) [Example 47, 4-Methoxy-N-[2-oxo-2-(2-phenyl-pyrrolidin-1-yl)-ethyl]-N-(3-trifluoromethyl-phenyl)-benzenesulfonamide]	0.0077
O=C(CN(c1ccc(Cl)cc1)S(=O)(=O)c1ccccc1Cl)N1CCCC1c1ccccc1 (centres unmarked) [Example 12, 2-Chloro-N-(4-chloro-phenyl)-N-[2-oxo-2-(2-phenyl-pyrrolidin-1-yl)-ethyl]-benzenesulfonamide]	0.0012
COc1ccc(S(=O)(=O)N(CC(=O)N2CCCC2c2ccccc2)c2ccc(Cl)cc2)cc1 (centres unmarked) [Example 2, N-(4-Chloro-phenyl)-4-methoxy-N-[2-oxo-2-(2-phenyl-pyrrolidin-1-yl)-ethyl]-benzenesulfonamide]	0.0049
O=C(CN(c1ccc(Cl)cc1)S(=O)(=O)c1ccccc1F)N1CCCC1c1ccccc1 (centres unmarked) [Example 13, N-(4-Chloro-phenyl)-2-fluoro-N-[2-oxo-2-(2-phenyl-pyrrolidin-1-yl)-ethyl]-benzenesulfonamide]	0.0025
COc1cccc(S(=O)(=O)N(CC(=O)N2CCCC2c2ccc(F)cc2)c2ccc(Cl)cc2)c1 (centres unmarked) [Example 21, N-(4-Chloro-phenyl)-N-{2-[2-(4-fluoro-phenyl)-pyrrolidin-1-yl]-2-oxo-ethyl}-3-methoxy-benzenesulfonamide]	0.0006
O=C(CN(c1ccc(Cl)cc1)S(=O)(=O)c1ccc(Cl)cc1)N1CCCC1c1ccccc1 (centres unmarked) [Example 8, 4-Chloro-N-(4-chloro-phenyl)-N-[2-oxo-2-(2-phenyl-pyrrolidin-1-yl)-ethyl]-benzenesulfonamide]	0.0022
O=C(CN(c1ccc(Cl)cc1)S(=O)(=O)c1cccc(F)c1)N1CCCC1c1ccc(F)cc1 (centres unmarked) [Example 15, N-(4-Chloro-phenyl)-3-fluoro-N-{2-[2-(4-fluoro-phenyl)-pyrrolidin-1-yl]-2-oxo-ethyl}-benzenesulfonamide]	0.0018
O=C(CN(c1ccc(Cl)cc1)S(=O)(=O)c1ccccc1F)N1CCCC1c1ccc(F)cc1 (centres unmarked) [Example 16, N-(4-Chloro-phenyl)-2-fluoro-N-{2-[2-(4-fluoro-phenyl)-pyrrolidin-1-yl]-2-oxo-ethyl}-benzenesulfonamide]	0.0009
O=C(CN(c1ccc(Cl)cc1)S(=O)(=O)c1cccc(Cl)c1)N1CCCC1c1ccccc1 (centres unmarked) [Example 4, 3-Chloro-N-(4-chloro-phenyl)-N-[2-oxo-2-(2-phenyl-pyrrolidin-1-yl)-ethyl]-benzenesulfonamide]	0.0011
COc1ccc(N(CC(=O)N2CCCC2c2ccccc2)S(=O)(=O)c2ccc(OC)cc2)cc1 (centres unmarked) [Example 27, 4-Methoxy-N-(4-methoxy-phenyl)-N-[2-oxo-2-(2-phenyl-pyrrolidin-1-yl)-ethyl]-benzenesulfonamide]	0.003

— patent publication US7932269B2, “Sulfonamides as orexin antagonists” (Hoffmann-La Roche Inc., priority 2008, dated 2011)
